Results taken from patent US11274083B2, “Substituted thiophenyl uracils, salts thereof and the use thereof as herbicidal agents” (Syngenta Crop Protection AG, priority 2017, dated 2022).

Key:
Format in all cases: in vivo
Oryza sativa = test: Crop compatibility post-emergence, greenhouse pot test; conditions: application rate 20 g/ha
Outline: (§1)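 Crops grown in sandy loam in greenhouse pots; treated post-emergence at one-leaf stage, 2–3 weeks after sowing, spraying WP or EC formulations as aqueous suspension/emulsion with 0.5% additive at 600 L/ha. Damage scored visually after about 3 weeks against untreated controls (0% = like control, 100% = dead).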

Zea mays = test: as above; conditions: application rate 20 g/ha
Outline: as §1

Stellaria media [1] = test: Herbicidal action post-emergence, greenhouse pot test
Outline: (§2)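 Compounds formulated as wettable powders or emulsion concentrates were applied post-emergence at 80 g/ha or lower to one-leaf plants grown in sandy loam. Percent efficacy relative to untreated controls was assessed visually roughly 3 weeks after treatment.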

Pharbitis purpurea [2] = test: as above
Outline: as §2

Abutilon theophrasti [3] = test: as above
Outline: as §2

Avena fatua [4] = test: as above
Outline: as §2

Setaria viridis [5] = test: as above; conditions: application rate 20 g/ha
Outline: as §2

Matricaria inodora [6] = test: as above
Outline: as §2

Alopecurus myosuroides [7] = test: as above; conditions: scored visually after about 3 weeks vs untreated controls
Outline: as §2

Amaranthus retroflexus [8] = test: as above
Outline: as §2

Viola tricolor [9] = test: as above; conditions: application rate 20 g/ha
Outline: as §2

Polygonum convolvulus [10] = test: as above
Outline: as §2

Echinochloa crus-galli [11] = test: as above
Outline: as §2

Veronica persica [12] = test: as above
Outline: as §2

Digitaria sanguinalis = test: as above; conditions: application rate 20 g/ha
Triticum aestivum = test: Crop compatibility post-emergence, greenhouse pot test
Outline: as §1

Matricaria inodora [13] = test: Herbicidal action pre-emergence, greenhouse pot test
Text: Seeds of mono- and dicotyledonous weeds and crop plants were laid out in plastic or organic plant pots and covered with soil. The compounds of the invention formulated in the form of wettable powders (WP) or as emulsion concentrates (EC) were then applied to the surface of the covering soil as an aqueous suspension or emulsion with addition of 0.5% additive at a water application rate equivalent to 600 L/ha. After the treatment, the pots were placed in a greenhouse and kept under good growth conditions for the test plants. After about 3 weeks, the efficacy of the preparations was scored visually as a percentage by comparison with untreated controls. For example, 100% efficacy=plants have died. 0% efficacy=like control plants. Tables B1 to B17 below show the efficacies of selected compounds of the general formula (I) […] aforementioned trial method.

Stellaria media [14] = test: as above
Outline: (§3)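 Visual scoring of percentage efficacy against untreated controls, about 3 weeks after treatment, gives the value; 100% means dead plants, 0% means no difference. Test compounds went onto the covering soil of freshly sown pots at 320 g/ha or lower.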

Pharbitis purpurea [15] = test: as above
Outline: as §3

Lolium rigidum [16] = test: as above; conditions: application rate 320 g/ha
Outline: as §3

Abutilon theophrasti [17] = test: as above
Outline: as §3

Avena fatua [18] = test: as above; conditions: application rate 320 g/ha
Outline: as §3

Setaria viridis [19] = test: as above
Outline: as §3

Alopecurus myosuroides [20] = test: as above; conditions: application rate 320 g/ha
Outline: as §3

Amaranthus retroflexus [21] = test: as above
Outline: as §3

Cyperus esculentus = test: as above; conditions: application rate 320 g/ha
Outline: as §3

Viola tricolor [22] = test: as above
Outline: as §3

Hordeum murinum = test: as above; conditions: application rate 320 g/ha
Outline: as §3

Polygonum convolvulus [23] = test: as above
Outline: as §3

Echinochloa crus-galli [24] = test: as above; conditions: application rate 320 g/ha
Outline: as §3

Veronica persica [25] = test: as above
Outline: as §3

Lolium rigidum [26] = test: Herbicidal action post-emergence, greenhouse pot test; conditions: application rate 80 g/ha
Outline: as §2

| Oryza sativa (Efficacy in %) (Oryza sativa) [%] | Zea mays (Efficacy in %) (Zea mays) [%] | SMILES | Stellaria media (Efficacy in %) (Stellaria media [1]; application rate 20 g/ha) [%] | Pharbitis purpurea (Efficacy in %) (Pharbitis purpurea [2]; application rate 20 g/ha) [%] | Abutilon theophrasti (Efficacy in %) (Abutilon theophrasti [3]; application rate 20 g/ha) [%] | Setaria viridis (Efficacy in %) (Setaria viridis [5]) [%] | Matricaria inodora (Efficacy in %) (Matricaria inodora [6]; application rate 20 g/ha) [%] | Amaranthus retroflexus (Efficacy in %) (Amaranthus retroflexus [8]; application rate 20 g/ha) [%] | Viola tricolor (Efficacy in %) (Viola tricolor [9]) [%] | Polygonum convolvulus (Efficacy in %) (Polygonum convolvulus [10]; application rate 20 g/ha) [%] | Echinochloa crus-galli (Efficacy in %) (Echinochloa crus-galli [11]; application rate 20 g/ha) [%] | Lolium rigidum (Efficacy in %) (Lolium rigidum [16]) [%] | Avena fatua (Efficacy in %) (Avena fatua [18]) [%] | Alopecurus myosuroides (Efficacy in %) (Alopecurus myosuroides [20]) [%] | Cyperus esculentus (Efficacy in %) (Cyperus esculentus) [%] | Hordeum murinum (Efficacy in %) (Hordeum murinum) [%] | Echinochloa crus-galli (Efficacy in %) (Echinochloa crus-galli [24]) [%] | Lolium rigidum (Efficacy in %) (Lolium rigidum [26]) [%] | Veronica persica (Efficacy in %) (Veronica persica [12]; application rate 80 g/ha) [%] | other results |
| --- | --- | --- | --- | --- | --- | --- | --- | --- | --- | --- | --- | --- | --- | --- | --- | --- | --- | --- | --- | --- |
| 0 | 0 | CCOC(=O)CCOC(=O)C(CC)Sc1cc(-n2c(=O)cc(C(F)(F)F)n(C)c2=O)c(F)cc1Cl (stereo not shown) [I.1-2-3, 3-Ethoxy-3-oxopropyl 2-({2-chloro-4-fluoro-5-[3-methyl-2,6-dioxo-4-(trifluoromethyl)-3,6-dihydropyrimidin-1(2H)-yl]phenyl}sulfanyl)butanoate] | 100 | 100 | 100 | 100 | 100 | 100 | 100 | 100 | 100 |  |  |  |  |  |  |  |  | Avena fatua (Efficacy in %) (Avena fatua [4]; application rate 20 g/ha): 100%; Alopecurus myosuroides (Efficacy in %) (Alopecurus myosuroides [7]; application rate 20 g/ha): 90%; Veronica persica (Efficacy in %) (Veronica persica [12]; application rate 20 g/ha): 100%; Digitaria sanguinalis (Efficacy in %) (Digitaria sanguinalis): 100% |
| 10 |  | COC(=O)COC(=O)C(C)Sc1cc(-n2c(=O)cc(C(F)(F)F)n(C)c2=O)c(F)cc1Cl (stereo not shown) [I.1-42] | 100 | 100 | 100 | 100 | 100 | 100 | 100 | 100 | 100 | 100 | 90 | 90 | 100 | 100 | 100 | 90 | 100 | Triticum aestivum (Efficacy in %) (Triticum aestivum; application rate 20 g/ha): 20%; Matricaria inodora (Efficacy in %) (Matricaria inodora [13]; application rate 80 g/ha): 100%; Stellaria media (Efficacy in %) (Stellaria media [14]; application rate 80 g/ha): 100%; Pharbitis purpurea (Efficacy in %) (Pharbitis purpurea [15]; application rate 80 g/ha): 100%; Abutilon theophrasti (Efficacy in %) (Abutilon theophrasti [17]; application rate 80 g/ha): 100%; Setaria viridis (Efficacy in %) (Setaria viridis [19]; application rate 80 g/ha): 100%; Amaranthus retroflexus (Efficacy in %) (Amaranthus retroflexus [21]; application rate 20 g/ha): 100%; Viola tricolor (Efficacy in %) (Viola tricolor [22]; application rate 80 g/ha): 100%; Polygonum convolvulus (Efficacy in %) (Polygonum convolvulus [23]; application rate 80 g/ha): 100%; Veronica persica (Efficacy in %) (Veronica persica [25]; application rate 80 g/ha): 100% |
| 20 | 20 | CNC(=O)COC(=O)C(C)Sc1cc(-n2c(=O)cc(C(F)(F)F)n(C)c2=O)c(F)cc1Cl (stereo not shown) [I.1-182] |  |  |  |  |  |  | 100 |  |  | 100 | 90 | 80 | 80 | 90 | 100 | 100 | 100 | Triticum aestivum (Efficacy in %) (Triticum aestivum; application rate 5 g/ha): 10%; Matricaria inodora (Efficacy in %) (Matricaria inodora [13]; application rate 320 g/ha): 100%; Stellaria media (Efficacy in %) (Stellaria media [14]; application rate 320 g/ha): 100%; Pharbitis purpurea (Efficacy in %) (Pharbitis purpurea [15]; application rate 320 g/ha): 100%; Abutilon theophrasti (Efficacy in %) (Abutilon theophrasti [17]; application rate 320 g/ha): 100%; Setaria viridis (Efficacy in %) (Setaria viridis [19]; application rate 320 g/ha): 100%; Amaranthus retroflexus (Efficacy in %) (Amaranthus retroflexus [21]; application rate 80 g/ha): 100%; Viola tricolor (Efficacy in %) (Viola tricolor [22]; application rate 320 g/ha): 100%; Polygonum convolvulus (Efficacy in %) (Polygonum convolvulus [23]; application rate 320 g/ha): 100%; Veronica persica (Efficacy in %) (Veronica persica [25]; application rate 320 g/ha): 100%; Stellaria media (Efficacy in %) (Stellaria media [1]; application rate 80 g/ha): 100%; Pharbitis purpurea (Efficacy in %) (Pharbitis purpurea [2]; application rate 80 g/ha): 100%; Abutilon theophrasti (Efficacy in %) (Abutilon theophrasti [3]; application rate 80 g/ha): 100%; Avena fatua (Efficacy in %) (Avena fatua [4]; application rate 80 g/ha): 90%; Matricaria inodora (Efficacy in %) (Matricaria inodora [6]; application rate 80 g/ha): 100%; Alopecurus myosuroides (Efficacy in %) (Alopecurus myosuroides [7]; application rate 80 g/ha): 80%; Amaranthus retroflexus (Efficacy in %) (Amaranthus retroflexus [8]; application rate 80 g/ha): 100%; Polygonum convolvulus (Efficacy in %) (Polygonum convolvulus [10]; application rate 80 g/ha): 100%; Echinochloa crus-galli (Efficacy in %) (Echinochloa crus-galli [11]; application rate 80 g/ha): 100% |
